Patent publication US10591491B1, “Blood biomarker for early blood brain barrier disruption in ischemic stroke” (STC.UNM, priority 2011, dated 2020)
Entries after “also recorded” stand apart in the source; their conditions may differ.

Tests used:
bEND3 cells [1] = assay: OGD-induced occludin degradation in bEND3 cells, Western blot of total cellular extracts; assay type: cell-based, Mouse
Method: (§1) Cell culture. Mouse brain microvascular endothelial cells bEND3 (American Type Culture Collection) were grown as a monolayer in DMEM with 15% fetal bovine serum (FBS), 100 U/ml penicillin and 100 μg/ml streptomycin at 37° C. in a humidified incubators with 5% CO2 and 95% room air. The cells were subcultured into 60 mm dishes coated with type I collagen (Nakamuta et al., 2005) and allowed to grow to confluence before exposure to OGD for 2 h. After OGD treatment, cell toxicity was measured by lactate dehydrogenase (LDH) assay using a CytoTox 96 Non-Radioactive Cytotoxicity Assay Kit (Promega). Besides endothelial cells, we also tested the effect of OGD on MMP-2/9 secretion in two mouse neural cell lines, C8-D1A (astrocyte) and […]. Both cell lines were purchased from American Type Culture Collection. C8-D1A cells and SH-SY5Y cells were cultured in DMEM or DMEM/F12 (1:1) (Sigma) containing 10% FBS, 100 U/ml penicillin and 100 μg/ml streptomycin, respectively. These cells were allowed to grow to 80-90% confluence before exposure to 2-h OGD treatment.
(§2) OGD treatment. To mimic acute ischemia-like conditions in vitro, bEND3 cells were exposed to OGD for 2 h as we described previously (Furuichi et al., 2005). […] The oxygen concentration was below 0.2% as monitored by an oxygen analyzer (Sable Systems). […]

bEND3 cells [2] = assay: Immunostaining of occludin in OGD-treated bEND3 cells (confocal); assay type: cell-based, Mouse
Method: as §1, §2

bEND3 cells [3] = assay: OGD-induced claudin-5 redistribution between subcellular fractions, Western blot; assay type: cell-based, Mouse; conditions: SB-3CT, 2 h OGD; Western blot of subcellular fractions
Method: OGD treatment. To mimic acute ischemia-like conditions in vitro, bEND3 cells were exposed to OGD for 2 h as we described previously (Furuichi et al., 2005). In brief, confluent bEND3 cells were subjected to an ischemic injury by transferring cultures to glucose free medium (DMEM without glucose) pre-equilibrated with 95% N2 and 5% CO2. Cells were then incubated in a humidified airtight chamber (Billups-Rothberg Inc.) equipped with an air lock and flushed with 95% N2 and 5% CO2 for 15 min. The chamber was then sealed and kept at 37° C. for another 105 min. The oxygen concentration was below 0.2% as monitored by an oxygen analyzer (Sable Systems). Control cultures were incubated with normal DMEM medium without FBS for 2 h at 37° C. in 95% air and 5% CO2. Immediately after OGD treatment, the conditioned media (CM) and cells were collected separately for further analyses.
Preparation of total cell lysate, subcellular fractions. To reveal a redistribution of MMP-2/9, Caveolin-1 (Cav-1) and TJ proteins in OGD-treated bEnd3 cells, three subcellular fractions including membranous, cytosolic, and cytoskeletal fractions were extracted using ProteoExtract Subcellular Proteome Extraction Kit (Calbiochem) according to manufacturer's instruction. […]

occludin = target: T1, occludin (UniProt Q61146)
T1 sequence: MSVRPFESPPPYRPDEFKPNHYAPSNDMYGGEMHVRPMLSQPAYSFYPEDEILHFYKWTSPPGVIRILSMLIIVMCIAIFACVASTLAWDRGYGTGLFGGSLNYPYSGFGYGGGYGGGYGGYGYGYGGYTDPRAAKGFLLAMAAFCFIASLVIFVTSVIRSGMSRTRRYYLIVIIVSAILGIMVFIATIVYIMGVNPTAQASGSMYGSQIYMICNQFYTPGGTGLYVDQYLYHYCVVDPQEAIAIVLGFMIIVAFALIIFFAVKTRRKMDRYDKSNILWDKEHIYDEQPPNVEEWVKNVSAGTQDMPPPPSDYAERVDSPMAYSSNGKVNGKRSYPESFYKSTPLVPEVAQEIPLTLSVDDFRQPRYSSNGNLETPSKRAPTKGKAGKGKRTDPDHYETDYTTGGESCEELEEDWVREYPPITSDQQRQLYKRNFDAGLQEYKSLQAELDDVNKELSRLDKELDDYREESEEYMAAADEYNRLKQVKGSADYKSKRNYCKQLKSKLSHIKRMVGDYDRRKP

[4] = tPA thrombolysis, cited from earlier work

With O=S(=O)(CC1CS1)c1ccc(Oc2ccccc2)cc1 (centres unmarked) [SB-3CT] the “OGD-induced occludin degradation (occludin protein in total cellular extracts)” value (bEND3 cells [1]; SB-3CT 10 μM, 2 h before and during 2 h OGD, Western blot, vs vehicle (DMSO) plus OGD) was “completely abolished OGD-induced occludin reduction; also recorded: completely inhibited OGD-induced occludin degradation”, the “occludin level in control (non-OGD) bEND3 cells” value (bEND3 cells [1]; SB-3CT-treated control cells compared to vehicle-treated cells (DMSO)) was “slight increase (not statistically significant) in occludin level” and the “occludin immunostaining reduction in OGD-treated cells” value (bEND3 cells [2]; SB-3CT pretreatment, 2 h OGD, confocal microscopy) was “completely inhibited occludin reduction in OGD-treated cells”. The “occludin immunostaining in control cells” value (bEND3 cells [2]; SB-3CT-treated control cells vs vehicle-treated control cells) was “slight stronger immunostaining (brighter fluorescence) for occludin” and the “OGD-induced claudin-5 redistribution between subcellular fractions” value (bEND3 cells [3]) was “had no effect on its redistribution between subcellular fractions; also recorded: had no effect on OGD-induced claudin-5 redistribution”.
With active MMP-9 the “occludin degradation in bEND3 extracts” value (occludin) was “active MMP-9-induced occludin degradation”.
In the case of “tPA: tissue plasminogen activator, the only FDA-approved therapy for acute ischemic stroke”, the “mortality rate in stroke patients who have such bleeding” value ([4]; patients with symptomatic ICH) is given as 50% and the “increase in the incidence of symptomatic ICH” value ([4]; stroke patients) is given as 10 fold.
